{"source": "patent US7557100B2", "about": "“Antibacterial agents” (Pfizer Inc., priority 2005, dated 2009)", "key": {"[1]": {"test_system": "Staphylococcus aureus SA-1 (UC-76)", "assay": "Microbroth dilution MIC testing against S. aureus", "assay_type": "cell-based", "details": "S. aureus UC76, CAMHB, 35° C., 16 to 24 hours, read-out: Minimum Inhibitory Concentration S. aureus UC76", "protocol": "(§1) In this example, the in vitro antibacterial activity of selected compounds was determined against S. aureus and H. influenzae. Except for clarifying or modifying statements, MIC testing followed procedures recommended by the NCCLS^1-2 or followed the descriptions cited below.\n(§2) Bacterial Cultures At least the following organisms are included in the screen: Staphylococcus aureus SA-1 (UC-76) and H. influenzae HI-3542. Incubations were at 35° C. Stock bacterial cultures were maintained on Tryptic Soy Agar containing 5% Sheep Blood (BD, Becton Dickinson Microbiology Systems, Cockeysville, Md.), anaerobes were maintained on Anaerobic Blood Agar plates—CDC Formulation (BD), and fastidious organisms were maintained on Chocolate Agar II Plates (BD). Specific conditions of handling are listed below.\n(§3) Standardized Organism Inocula Frozen stock cultures were used as the initial source of organisms for performing microbroth dilution MIC testing. Stock cultures were passed on their standard growth medium for at least 1 growth cycle (18 24 hours) prior to their use.\n(§4) Most bacteria, unless otherwise noted, were prepared directly from agar plates in 10 mL aliquots of the appropriate broth medium. Bacterial cultures were adjusted to the opacity of a 0.5 McFarland Standard (optical density value of 0.28-0.33 on a Perkin-Elmer Lambda EZ150 Spectrophotometer Wellesley, Mass., set at a wavelength of 600 nm).). The adjusted cultures were diluted 400 fold (0.25 mL inoculum+100 mL broth) in growth media to produce a starting suspension of approximately 5×10^5 colony forming units (CFU)/mL. Unless otherwise noted, bacterial strains were tested in cation adjusted Mueller Hinton Broth (CAMHB).\n(§5) Test Compound (“Drug”) Preparation Compounds were solubilized in DMSO. Drug stock solutions were prepared on the day of testing. Drugs were weight corrected for assay content where necessary.\n(§6) Drug Dilution Tray Preparation Microbroth dilution stock plates were prepared in two dilution series, 64 to 0.06 μg drug/mL and 0.25 to 0.00025 μg drug/mL. For the high concentration series, 200 μL of stock solution (2 mg/mL) was added to duplicate rows of a 96-well microtiter plate. This was used as the first well in the dilution series. Serial two-fold decremental dilutions were made using a BioMek FX robot (Beckman Coulter Inc., Fullerton, Calif.) with 10 of the remaining 11 wells, each of which contained 100 μL of the appropriate solvent/diluent. Row 12 contained solvent/diluent only and served as the control. For tube one of the low concentration series, 200 μL of an 8 μg/mL stock was added to duplicate rows of a 96-well plate. Serial two-fold dilutions were made as described above.\n(§7) Daughter plates were spotted (3.2 μL/well) from the stock plates listed above using the BioMek FX robot and were either used immediately or frozen at −70° C. until use.\n(§8) Plate Inoculation Aerobic organisms were inoculated (100 μL volumes) into the thawed plates using the BioMek FX robot. The inoculated plates were placed in stacks of no more than 5 and covered with an empty plate. These plates were incubated 16 to 24 hours in ambient atmosphere according to CLSI guidelines^2.\n(§9) Reading the Test After inoculation and incubation, the degree of bacterial growth was estimated visually with the aid of a Test Reading Mirror (Dynex Technologies 220 16) in a darkened room with a single light shining directly through the top of the microbroth tray. The MIC was the lowest concentration of drug that prevented macroscopically visible growth under the conditions of the test. Testing was performed in duplicate. When the MIC values in duplicate tests varied by 1 well (2 fold), the lower values were reported. If the MICs varied by 2 dilutions, the middle value was reported. Greater than this 4 fold variance called for the test to be repeated, after which a similar determination was applied to all values."}, "H. influenzae HI-3542": {"test_system": "H. influenzae HI-3542", "assay": "Microbroth dilution MIC testing against H. influenzae", "assay_type": "cell-based", "details": "HI3542, H. influenzae 3542, Haemophilus Test Medium, 35° C., 16 to 24 hours, read-out: Minimum Inhibitory Concentration H. influenzae 3542", "protocol": "as §1, §2\nHaemophilus was maintained on Chocolate Agar II Plates at room temperature in a candle jar providing a 3 5% CO2 atmosphere.\nas §3, §4\nHaemophilus influenzae strains were grown on Chocolate Agar II Plates and tested in Haemophilus Test Medium (Remel, Lenexa, Kans.).\nas §5, §6, §7, §8\nas §9, with “Greater than this 4 fold variance called for the test to be repeated, after which a similar determination was applied to all values.” left out"}}, "data": [{"smiles": "C[C@H]1CN2c3cc(F)c(-c4cnccn4)cc3CC3(C(=O)NC(=O)NC3=O)[C@@H]2[C@@H](C)O1", "note": "(relative stereo) [Compound 19, rel-(2S,4R,4aR)-9-dluoro-2,4-dimethyl-8-pyrazin-2-yl-1,2,4,4a-tetrahydro-2′H,6H-spiro[1,4-oxazino[4,3-a]quinoline-5,5′-pyrimidine]-2′,4′,6′(1′H,3′H)-trione]", "values": [{"measurement": "MIC", "setting": "[1]", "result": 2, "unit": "µg/mL"}, {"measurement": "MIC", "setting": "H. influenzae HI-3542", "result": 2, "unit": "µg/mL"}]}, {"smiles": "C[C@@H]1CN2c3c(cc(-c4cnc(N)cn4)c(F)c3F)CC3(C(=O)NC(=O)NC3=O)[C@H]2[C@H](C)O1", "note": "[Compound 22, (2R,4S,4aS)-8-(5-aminopyrazin-2-yl)-9,10-difluoro-2,4-dimethyl-1,2,4,4a-tetrahydro-2′H,6H-spiro[1,4-oxazino[4,3-a]quinoline-5,5′-pyrimidine]-2′,4′,6′(1′H,3′H)-trione]", "values": [{"measurement": "MIC", "setting": "[1]", "result": 0.5, "unit": "µg/mL"}, {"measurement": "MIC", "setting": "H. influenzae HI-3542", "result": 0.5, "unit": "µg/mL"}]}, {"smiles": "COCCOc1c(-c2cnccn2)cc2c(c1F)N1C[C@H](C)O[C@H](C)[C@H]1C1(C2)C(=O)NC(=O)NC1=O", "note": "(relative stereo) [Compound 17, rel-(2S,4R,4aR)-10-fluoro-9-(2-methoxyethoxy)-2,4-dimethyl-8-pyrazin-2-yl-1,2,4,4a-tetrahydro-2′H,6H-spiro[1,4-oxazino[4,3-a]quinoline-5,5′-pyrimidine]-2′,4′,6′(1′H,3′H)-trione]", "values": [{"measurement": "MIC", "setting": "[1]", "result": "> 64", "unit": "µg/mL"}, {"measurement": "MIC", "setting": "H. influenzae HI-3542", "result": "> 64", "unit": "µg/mL"}]}, {"smiles": "C[C@H]1CN2c3c(cc(-c4cnccn4)c(N4CCOCC4)c3F)CC3(C(=O)NC(=O)NC3=O)[C@@H]2[C@@H](C)O1", "note": "(relative stereo) [Compound 16, rel-(2S,4R,4aR)-10-fluoro-2,4-dimethyl-9-morpholin-4-yl-8-pyrazin-2-yl-1,2,4,4a-tetrahydro-2′H,6H-spiro[1,4-oxazino[4,3-a]quinoline-5,5′-pyrimidine]-2′,4′,6′(1′H,3′H)-trione]", "values": [{"measurement": "MIC", "setting": "[1]", "result": "> 64", "unit": "µg/mL"}, {"measurement": "MIC", "setting": "H. influenzae HI-3542", "result": "> 64", "unit": "µg/mL"}]}, {"smiles": "C[C@@H]1CN2c3c(cc(-c4c[n+]([O-])ccn4)c(F)c3F)CC3(C(=O)NC(=O)NC3=O)[C@H]2[C@H](C)O1", "note": "[Compound 6, (2R,4S,4aS)-9,10-difluoro-2,4-dimethyl-8-(4-oxidopyrazinpyrazin-2-yl)-1,2,4,4a-tetrahydro-2′H,6H-spiro[1,4-oxazino[4,3-a]quinoline-5,5′-pyrimidine]-2′,4′,6′(1′H,3′H)-trione]", "values": [{"measurement": "MIC", "setting": "[1]", "result": 0.5, "unit": "µg/mL"}, {"measurement": "MIC", "setting": "H. influenzae HI-3542", "result": 0.25, "unit": "µg/mL"}]}, {"smiles": "COc1nccnc1-c1ccc2c(c1)CC1(C(=O)NC(=O)NC1=O)[C@@H]1[C@@H](C)O[C@@H](C)CN21", "note": "(relative stereo) [Compound 21, rel-(2S,4R,4aR)-8-(3-methoxypyrazin-2-yl)-2,4-dimethyl-1,2,4,4a-tetrahydro-2′H,6H-spiro[1,4-oxazino[4,3-a]quinoline-5,5′-pyrimidine]-2′,4′,6′(1′H,3′H)-trione]", "values": [{"measurement": "MIC", "setting": "[1]", "result": 16, "unit": "µg/mL"}, {"measurement": "MIC", "setting": "H. influenzae HI-3542", "result": 32, "unit": "µg/mL"}]}, {"smiles": "C[C@H]1CN2c3ccc(-c4cnccn4)cc3CC3(C(=O)NC(=O)NC3=O)[C@@H]2[C@@H](C)O1", "note": "(relative stereo) [Compound 20, rel-(2S,4R,4aR)-2,4-dimethyl-8-pyrazin-2-yl-1,2,4,4a-tetrahydro-2′H,6H-spiro[1,4-oxazino[4,3-a]quinoline-5,5′-pyrimidine]-2′,4′,6′(1′H,3′H)-trione]", "values": [{"measurement": "MIC", "setting": "[1]", "result": 4, "unit": "µg/mL"}, {"measurement": "MIC", "setting": "H. influenzae HI-3542", "result": 2, "unit": "µg/mL"}]}, {"smiles": "C[C@@H]1CN2c3c(cc(-c4cnccn4)c(F)c3F)CC3(C(=O)NC(=O)NC3=O)[C@H]2[C@H](C)O1", "note": "[Compound 2, (2R,4S,4aS)-9,10-difluoro-2,4-dimethyl-8-pyrazin-2-yl-1,2,4,4a-tetrahydro-2′H,6H-spiro[1,4-oxazino[4,3-a]quinoline-5,5′-pyrimidine]-2′,4′,6′(1′H,3′H)-trione]", "values": [{"measurement": "MIC", "setting": "[1]", "result": 0.125, "unit": "µg/mL"}, {"measurement": "MIC", "setting": "H. influenzae HI-3542", "result": 0.5, "unit": "µg/mL"}]}, {"smiles": "CCOc1cnc(-c2cc3c(c(F)c2F)N2C[C@@H](C)O[C@@H](C)[C@@H]2C2(C3)C(=O)NC(=O)NC2=O)cn1", "note": "[Compound 26, (2R,4S,4aS)-8-(5-ethoxypyrazin-2-yl)-9,10-difluoro-2,4-dimethyl-1,2,4,4a-tetrahydro-2′H,6H-spiro[1,4-oxazino[4,3-a]quinoline-5,5′-pyrimidine]-2′,4′,6′(1′H,3′H)-trione]", "values": [{"measurement": "MIC", "setting": "[1]", "result": 0.25, "unit": "µg/mL"}, {"measurement": "MIC", "setting": "H. influenzae HI-3542", "result": 1, "unit": "µg/mL"}]}, {"smiles": "C[C@@H]1CN2c3c(cc(-c4cnccn4)c(F)c3F)CC3(C(=O)N(CN4CCOCC4)C(=O)N(CN4CCOCC4)C3=O)[C@H]2[C@H](C)O1", "note": "[Compound 4, (2R,4S,4aS)-9,10-difluoro-2,4-dimethyl-1′,3′-bis(morpholin-4-ylmethyl)-8-pyrazin-2-yl-1,2,4,4a-tetrahydro-2′H,6H-spiro[1,4-oxazino[4,3-a]quinoline-5,5′-pyrimidine]-2′,4′,6′(1′H,3′H)-trione]", "values": [{"measurement": "MIC", "setting": "[1]", "result": 0.25, "unit": "µg/mL"}, {"measurement": "MIC", "setting": "H. influenzae HI-3542", "result": 0.5, "unit": "µg/mL"}]}, {"smiles": "C[C@@H]1CN2c3c(cc(-c4cnccn4)c(F)c3F)CC3(C(=O)N(CN4CCN(C)CC4)C(=O)N(CN4CCN(C)CC4)C3=O)[C@H]2[C@H](C)O1", "note": "[Compound 5, (2R,4S,4aS)-9,10-difluoro-2,4-dimethyl-1′,3′-bis[(4-methylpiperazin-1-yl)methyl]-8-pyrazin-2-yl-1,2,4,4a-tetrahydro-2′H,6H-spiro[1,4-oxazino[4,3-a]quinoline-5,5′-pyrimidine]-2′,4′,6′(1′H,3′H)-trione]", "values": [{"measurement": "MIC", "setting": "[1]", "result": 0.5, "unit": "µg/mL"}, {"measurement": "MIC", "setting": "H. influenzae HI-3542", "result": 1, "unit": "µg/mL"}]}, {"smiles": "C[C@H]1CN2c3c(cc(-c4cnccn4)c(OCCF)c3F)CC3(C(=O)NC(=O)NC3=O)[C@@H]2[C@@H](C)O1", "note": "(relative stereo) [Compound 18, rel-(2S,4R,4aR)-10-fluoro-9-(2-fluoroethoxy)-2,4-dimethyl-8-pyrazin-2-yl-1,2,4,4a-tetrahydro-2′H,6H-spiro[1,4-oxazino[4,3-a]quinoline-5,5′-pyrimidine]-2′,4′,6′(1′H,3′H)-trione]", "values": [{"measurement": "MIC", "setting": "[1]", "result": "> 64", "unit": "µg/mL"}, {"measurement": "MIC", "setting": "H. influenzae HI-3542", "result": "> 64", "unit": "µg/mL"}]}, {"smiles": "C[C@H]1CN2c3c(cc(-c4cnccn4)c(F)c3F)CC3(C(=O)NC(=O)NC3=O)[C@@H]2[C@@H](C)O1", "note": "(relative stereo) [Compound 1, rel-(2S,4R,4aR)-9,10-difluoro-2,4-dimethyl-8-pyrazin-2-yl-1,2,4,4a-tetrahydro-2′H,6H-spiro[1,4-oxazino[4,3-a]quinoline-5,5′-pyrimidine]-2′,4′,6′(1′H,3′H)-trione]", "values": [{"measurement": "MIC", "setting": "H. influenzae HI-3542", "result": 1, "unit": "µg/mL"}]}, {"smiles": "C[C@H]1CN2c3c(F)cc(-c4cnccn4)cc3CC3(C(=O)NC(=O)NC3=O)[C@@H]2[C@@H](C)O1", "note": "(relative stereo) [Compound 15, rel-(2S,4R,4aR)-10-fluoro-2,4-dimethyl-8-pyrazin-2-yl-1,2,4,4a-tetrahydro-2′H,6H-spiro[1,4-oxazino[4,3-a]quinoline-5,5′-pyrimidine]-2′,4′,6′(1′H,3′H)-trione]", "values": [{"measurement": "MIC", "setting": "[1]", "result": 1, "unit": "µg/mL"}, {"measurement": "MIC", "setting": "H. influenzae HI-3542", "result": 4, "unit": "µg/mL"}]}, {"smiles": "C[C@H]1CN2c3c(cc(-c4cnccn4)c(F)c3F)CC3(C(=O)NC(=O)NC3=O)[C@@H]2[C@@H](C)O1", "note": "[Compound 3, (2S,4R,4aR)-9,10-difluoro-2,4-dimethyl-8-pyrazin-2-yl-1,2,4,4a-tetrahydro-2′H,6H-spiro[1,4-oxazino[4,3-a]quinoline-5,5′-pyrimidine]-2′,4′,6′(1′H,3′H)-trione]", "values": [{"measurement": "MIC", "setting": "H. influenzae HI-3542", "result": "> 64", "unit": "µg/mL"}]}]}
